Experimental data from the supplement of paper PMC10307832.

Assays:
Test in all cases: relative viability (nuclei count vs DMSO), 5 days (fraction); higher = more cells survive
A-427 = test system: A-427
Procedure, shortened: (§1)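 Relative viability was taken as the ratio of nuclei in treated wells to nuclei in vehicle wells. Lung cancer cell lines in 1536-well plates received compounds by pin tool one day after seeding, either one drug alone or a fixed anchor-drug dose plus five library-drug doses (not always all listed) in √10 steps. Nuclei were counted on 4× images after 5 days of treatment, and values are medians of duplicate plates.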

NCI-H1651 = test system: NCI-H1651
Procedure, shortened: as §1

NCI-H1755 = test system: NCI-H1755
Procedure, shortened: as §1

LK-2 = test system: LK-2
Procedure, shortened: as §1

A549 = test system: A549
Procedure, shortened: as §1

NCI-H1299 = test system: NCI-H1299
Procedure, shortened: as §1

EBC-1 = test system: EBC-1
Procedure, shortened: as §1

CAL-12T = test system: CAL-12T
Procedure, shortened: as §1

Calu-6 = test system: Calu-6
Procedure, shortened: as §1

NCI-H1703 = test system: NCI-H1703
Procedure, shortened: as §1

IA-LM = test system: IA-LM
Procedure, shortened: as §1

## Cc1csc(=NC2CCCCC2)n1/N=C/c1ccc(O)c(O)c1O [MIM1] + CS(=O)(=O)CCNCc1ccc(-c2ccc3ncnc(Nc4ccc(OCc5cccc(F)c5)c(Cl)c4)c3c2)o1 [Lapatinib] (partner 2 µM)
A-427; first compound 0.2 µM
  relative viability: 1.05
A-427; first compound 0.6325 µM
  relative viability: 1.05
A-427; first compound 2 µM
  relative viability: 0.868
A-427; first compound 6.325 µM
  relative viability: 0.841
A-427; first compound 20 µM
  relative viability: 0.265
NCI-H1651; first compound 0.2 µM
  relative viability: 0.883
NCI-H1651; first compound 0.6325 µM
  relative viability: 0.854
NCI-H1651; first compound 2 µM
  relative viability: 0.95
NCI-H1651; first compound 6.325 µM
  relative viability: 0.655
NCI-H1651; first compound 20 µM
  relative viability: 0.274
NCI-H1755; first compound 0.2 µM
  relative viability: 1.04
NCI-H1755; first compound 0.6325 µM
  relative viability: 0.973
NCI-H1755; first compound 2 µM
  relative viability: 1.03
NCI-H1755; first compound 6.325 µM
  relative viability: 0.722
NCI-H1755; first compound 20 µM
  relative viability: 0.251
LK-2; first compound 0.2 µM
  relative viability: 0.911
LK-2; first compound 0.6325 µM
  relative viability: 0.881
LK-2; first compound 2 µM
  relative viability: 0.697
LK-2; first compound 6.325 µM
  relative viability: 0.835
LK-2; first compound 20 µM
  relative viability: 0.268
A549; first compound 0.2 µM
  relative viability: 0.997
A549; first compound 0.6325 µM
  relative viability: 0.941
A549; first compound 2 µM
  relative viability: 1.03
A549; first compound 6.325 µM
  relative viability: 0.595
A549; first compound 20 µM
  relative viability: 0.222
NCI-H1299; first compound 0.2 µM
  relative viability: 0.978
NCI-H1299; first compound 0.6325 µM
  relative viability: 0.954
NCI-H1299; first compound 2 µM
  relative viability: 1
NCI-H1299; first compound 6.325 µM
  relative viability: 0.924
NCI-H1299; first compound 20 µM
  relative viability: 0.948
EBC-1; first compound 0.2 µM
  relative viability: 0.199
EBC-1; first compound 0.6325 µM
  relative viability: 0.279
EBC-1; first compound 2 µM
  relative viability: 0.212
EBC-1; first compound 6.325 µM
  relative viability: 0.209
EBC-1; first compound 20 µM
  relative viability: 0.205
CAL-12T; first compound 0.2 µM
  relative viability: 0.615
CAL-12T; first compound 2 µM
  relative viability: 0.754
CAL-12T; first compound 6.325 µM
  relative viability: 0.578
CAL-12T; first compound 20 µM
  relative viability: 0.22
Calu-6; first compound 0.2 µM
  relative viability: 1.08
Calu-6; first compound 0.6325 µM
  relative viability: 0.985
Calu-6; first compound 2 µM
  relative viability: 1.06
Calu-6; first compound 6.325 µM
  relative viability: 0.509
Calu-6; first compound 20 µM
  relative viability: 0.289
NCI-H1703; first compound 0.2 µM
  relative viability: 1.02
NCI-H1703; first compound 0.6325 µM
  relative viability: 1.23
NCI-H1703; first compound 2 µM
  relative viability: 0.906
NCI-H1703; first compound 6.325 µM
  relative viability: 0.166
NCI-H1703; first compound 20 µM
  relative viability: 0.202
IA-LM; first compound 0.2 µM
  relative viability: 0.66
IA-LM; first compound 0.6325 µM
  relative viability: 0.869
IA-LM; first compound 2 µM
  relative viability: 0.716
IA-LM; first compound 6.325 µM
  relative viability: 0.375
IA-LM; first compound 20 µM
  relative viability: 0.151

## CCNC(=O)c1noc(-c2cc(C(C)C)c(O)cc2O)c1-c1ccc(CN2CCOCC2)cc1 [Luminespib] + CC1(C)CCC(c2ccc(Cl)cc2)=C(CN2CCN(c3ccc(C(=O)NS(=O)(=O)c4ccc(N[C@H](CCN5CCOCC5)CSc5ccccc5)c(S(=O)(=O)C(F)(F)F)c4)cc3)CC2)C1 [Navitoclax] (partner 0.5 µM)
A-427; first compound 0.002 µM
  relative viability: 1.01
A-427; first compound 0.006325 µM
  relative viability: 0.913
A-427; first compound 0.02 µM
  relative viability: 0.497
A-427; first compound 0.06325 µM
  relative viability: 0.99
A-427; first compound 0.2 µM
  relative viability: 1.03
NCI-H1651; first compound 0.002 µM
  relative viability: 0.967
NCI-H1651; first compound 0.006325 µM
  relative viability: 1.1
NCI-H1651; first compound 0.02 µM
  relative viability: 1.08
NCI-H1651; first compound 0.06325 µM
  relative viability: 0.18
NCI-H1651; first compound 0.2 µM
  relative viability: 0.144
NCI-H1755; first compound 0.002 µM
  relative viability: 0.981
NCI-H1755; first compound 0.006325 µM
  relative viability: 0.959
NCI-H1755; first compound 0.02 µM
  relative viability: 0.973
NCI-H1755; first compound 0.06325 µM
  relative viability: 0.971
NCI-H1755; first compound 0.2 µM
  relative viability: 0.933
LK-2; first compound 0.002 µM
  relative viability: 0.826
LK-2; first compound 0.006325 µM
  relative viability: 0.936
LK-2; first compound 0.02 µM
  relative viability: 0.571
LK-2; first compound 0.06325 µM
  relative viability: 0.163
LK-2; first compound 0.2 µM
  relative viability: 0.159
A549; first compound 0.002 µM
  relative viability: 1.22
A549; first compound 0.006325 µM
  relative viability: 1.15
A549; first compound 0.02 µM
  relative viability: 1.11
A549; first compound 0.06325 µM
  relative viability: 0.0452
A549; first compound 0.2 µM
  relative viability: 0.0433
NCI-H1299; first compound 0.002 µM
  relative viability: 1.03
NCI-H1299; first compound 0.006325 µM
  relative viability: 1.01
NCI-H1299; first compound 0.02 µM
  relative viability: 1.07
NCI-H1299; first compound 0.06325 µM
  relative viability: 0.975
NCI-H1299; first compound 0.2 µM
  relative viability: 0.295
EBC-1; first compound 0.002 µM
  relative viability: 0.489
EBC-1; first compound 0.006325 µM
  relative viability: 0.488
EBC-1; first compound 0.02 µM
  relative viability: 0.241
EBC-1; first compound 0.06325 µM
  relative viability: 0.142
EBC-1; first compound 0.2 µM
  relative viability: 0.133
CAL-12T; first compound 0.002 µM
  relative viability: 1.47
CAL-12T; first compound 0.006325 µM
  relative viability: 1.23
CAL-12T; first compound 0.02 µM
  relative viability: 0.491
CAL-12T; first compound 0.06325 µM
  relative viability: 0.106
CAL-12T; first compound 0.2 µM
  relative viability: 0.116
Calu-6; first compound 0.002 µM
  relative viability: 0.836
Calu-6; first compound 0.006325 µM
  relative viability: 0.772
Calu-6; first compound 0.02 µM
  relative viability: 1.08
Calu-6; first compound 0.06325 µM
  relative viability: 0.116
Calu-6; first compound 0.2 µM
  relative viability: 0.107
NCI-H1703; first compound 0.002 µM
  relative viability: 1.34
NCI-H1703; first compound 0.006325 µM
  relative viability: 0.925
NCI-H1703; first compound 0.02 µM
  relative viability: 0.371
NCI-H1703; first compound 0.06325 µM
  relative viability: 0.147
NCI-H1703; first compound 0.2 µM
  relative viability: 0.138
IA-LM; first compound 0.002 µM
  relative viability: 0.752
IA-LM; first compound 0.006325 µM
  relative viability: 0.792
IA-LM; first compound 0.02 µM
  relative viability: 0.549
IA-LM; first compound 0.06325 µM
  relative viability: 0.061
IA-LM; first compound 0.2 µM
  relative viability: 0.058
